Test results: patent US20240366571A1, “MODULATORS OF SK4 POTASSIUM CHANNEL AND USES THEREOF” (Ramot at Tel-Aviv University Ltd., priority 2022, published 2024)

System: rat model of heart failure (HF) post-myocardial infarction (MI)
Experiment: Rat model of heart failure post-myocardial infarction
Assay type: in vivo
Conditions: vs vehicle
Method: […] Experimental setup and details are described, for example, in Murninkas et al. Am J Physiol-Heart Circul Physiol. (2021), 320, H713-H24.
Following electrode implantation and animal recovery, baseline EP (electrophysiological) measurements were performed followed by random division of the animals to treatment with the exemplary compound vs. treatment with vehicle.
Masson-trichrome staining: staining was performed according to a standard procedure, as described, for example, in N. Foot, Stain Technology (2009), Volume 8, 1933—Issue 3, 101-110.

[1] = 20 mg/kg daily for 2 weeks from one week post-MI

## CCCCCCCn1c(=O)oc2ccccc21 [BA6b9, 3-heptylbenzo[d]oxazol-2(3H)-one]
[1]
  AF induction: markedly attenuates
  EF (ejection fraction): does not affect
  total AF duration: markedly attenuates
Masson-trichrome staining after post-MI treatment
  LA fibrosis: reduction
After post-MI treatment
  LA smooth muscle actin (SMA): reduction
